Consider 6 molecules from patent US20120157717A1, “METHODS AND COMPOSITIONS FOR PRODUCING LINEAR ALKYL BENZENES” (LS9, INC., priority 2010, published 2012).

For orientation: Km means the substrate concentration at which the rate is half of its maximum.

One series deals with T1, PCC7942_orf1594 protein (Synechococcus elongatus, UniProt Q54765).
T1 construct: His-tag (C); made in house; host or cells: E. coli BL21 (DE3)
T1 sequence (Q54765 1-341): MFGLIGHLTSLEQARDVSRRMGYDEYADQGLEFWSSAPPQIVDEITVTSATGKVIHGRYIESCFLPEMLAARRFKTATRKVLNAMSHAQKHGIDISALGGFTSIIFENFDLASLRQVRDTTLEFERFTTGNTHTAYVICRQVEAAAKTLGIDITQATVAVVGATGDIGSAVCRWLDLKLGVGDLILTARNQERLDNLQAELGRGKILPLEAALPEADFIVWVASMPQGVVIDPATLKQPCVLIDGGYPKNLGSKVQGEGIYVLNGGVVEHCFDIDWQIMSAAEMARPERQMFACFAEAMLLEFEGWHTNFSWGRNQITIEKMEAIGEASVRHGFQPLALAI
In words: acyl-ACP or acyl-CoA reductase enzyme assay (aldehyde formed, GC/MS). In kind it is biochemical, Synechococcus elongatus PCC7942. The procedure:
The genomic DNA encoding S. elongatus […] orf1594 (SEQ ID NO:65) was cloned into the NcoI and XhoI sites of vector pET-28b under the control of the T7 promoter. The resulting PCC7942_orf1594 protein contained a C-terminal His-tag. An E. coli BL21 strain (DE3) (Invitrogen) was transformed with the plasmid and PCC7942_orf1594 protein was expressed and purified as described in Example 22. The protein solution was stored in the following buffer: 50 mM sodium phosphate, pH 7.5, 100 mM NaCl, 1 mM THP, 10% glycerol. Protein concentration was determined using the Bradford assay (Biorad). 2 mg/mL of PCC7942_orf1594 protein was obtained.
To test PCC7942_orf1594 protein for acyl-ACP or acyl-CoA reductase activity, the following enzyme assays were set-up. 100 μL reactions were set-up in 50 mM Tris-HCl buffer at pH 7.5 with the following components at their respective final concentrations: 10 μM of purified PCC7942_orf1594 protein, 0.01-1 mM acyl-CoA or acyl-ACP, 2 mM MgCl2, 0.2-2 mM NADPH. The reactions were incubated for 1 h at 37° C. and where stopped by adding 100 μL ethyl acetate (containing 5 mg/l 1-octadecene as internal standard). Samples were vortexed for 15 min and centrifuged at max speed for 3 min for phase separation. 80 μL of the top layer were transferred into GC glass vials and analyzed by GC/MS as described in Example 26. The amount of aldehyde formed was calculated based on the internal standard.

Series [1] deals with Prochlorococcus marinus CCMP1986 PMM0532 (NP-892650; putative decarbonylase).
[2] abbreviates: in the presence of 2 mM NADPH, 10 μM purified enzyme, 2 mM MgCl2, pH 7.5, 1 h at 37° C., read-out: Km for the reduction of the acyl substrate.

Like-named read-outs stand apart in the source and are kept apart here.

With `NC(=O)C1=CN([C@@H]2O[C@H](COP(=O)(O)OP(=O)(O)OC[C@H]3O[C@@H](n4cnc5c(N)ncnc54)[C@H](OP(=O)(O)O)[C@@H]3O)[C@@H](O)[C@H]2O)C=CC1` [NADPH, reference compound], the Km on PCC7942_orf1594 protein (in the presence of 0.5 mM octadecanoyl-CoA, read-out: Km value for NADPH) worked out at 400 ± 80 µM.
For `CCCCCCCCCCCCCCCCCC(=O)SCCNC(=O)CCNC(=O)[C@H](O)C(C)(C)COP(=O)(O)OP(=O)(O)OC[C@H]1O[C@@H](n2cnc3c(N)ncnc32)[C@H](O)[C@@H]1OP(=O)(O)O` [octadecanoyl-CoA], on PCC7942_orf1594 protein (setting [2]), the Michaelis-Menten constant (Km) was 45 ± 20 µM.
For “Prochlorococcus marinus CCMP1986 PMM0533 (NP-892651; putative aldehyde-generating enzyme)”, the “hydrocarbon and fatty alcohol production by cotransformed E. coli MG1655 (GC/MS)” value in series [1] is “E. coli cells transformed with only the P. marinus CCMP1986 PMM0533-bearing vector did not produce any fatty aldehydes or fatty alcohols. However, E. coli cells cotransformed with PMM0533 and PMM0532-bearing vectors produced hexadecanol, pentadecane and heptadecene”.
For the molecule octadecenoyl-ACP, the Km in the series with PCC7942_orf1594 protein (setting [2]) worked out at 7.8 ± 2 µM.
Consider octadecenoyl-CoA, for which the Km at PCC7942_orf1594 protein (setting [2]) was found to be 82 ± 22 µM.

B1: Synechococcus elongatus PCC7942 YP-400611 (Synpcc7942-1594) acyl-ACP reductase, purified with C-terminal His-tag (protein)
chain: MFGLIGHLTSLEQARDVSRRMGYDEYADQGLEFWSSAPPQIVDEITVTSATGKVIHGRYIESCFLPEMLAARRFKTATRKVLNAMSHAQKHGIDISALGGFTSIIFENFDLASLRQVRDTTLEFERFTTGNTHTAYVICRQVEAAAKTLGIDITQATVAVVGATGDIGSAVCRWLDLKLGVGDLILTARNQERLDNLQAELGRGKILPLEAALPEADFIVWVASMPQGVVIDPATLKQPCVLIDGGYPKNLGSKVQGEGIYVLNGGVVEHCFDIDWQIMSAAEMARPERQMFACFAEAMLLEFEGWHTNFSWGRNQITIEKMEAIGEASVRHGFQPLALAI
As for B1, the “Km for the reduction of octadecenoyl-ACP in the presence of 2 mM NADPH (in vitro reductase assay, GC/MS)” value with octadecenoyl-ACP was 7.8 ± 2 µM.
